Read-outs that look alike come from different tables or passages of the source.
What was measured:
[1] = oxidation-reduction potential (ORP) measurement of the solution; format: physicochemical
Protocol: (§1) The peroxide concentration is determined by a potassium permanganate titration procedure and the devices used for the measurement of pH, ORP and conductivity are a WTW 537, a Testo 230 ORP and a HANNA EC device, respectively.

[2] = electrical conductivity measurement of the solution; format: physicochemical
Protocol: as §1

[3] = pH measurement of the solution; format: physicochemical
Protocol: as §1

Salmonella typhimurium = assay: bactericidal suspension test conform EN 1040 (Example 1); format: cell-based; settings: after 5 minutes
Protocol: (§2) In a controlled bactericidal suspension test conform European Norm for testing of basic bactericidal activity of chemical disinfectants and antiseptics EN 1040, a 1 ml McFarland standard 0.5 (10^8 microorganisms per ml) was mixed 1:8 with the activated peroxide solution and 1 ml milli-Q water. After 10 minutes, Staphylococcus aureus was killed 100%, while Escherichia coli, Salmonella typhimurium, Rhodotorula rubra and Pseudomonas aeruginosa were all killed 100% already after 5 minutes. A 100% kill typically is shown by at least a log 5 reduction.

Pseudomonas aeruginosa = assay: as above; format: cell-based; settings: after 5 minutes
Protocol: as §2

Rhodotorula rubra = assay: as above; format: cell-based; settings: after 5 minutes
Protocol: as §2

Escherichia coli = assay: as above; format: cell-based; settings: after 5 minutes
Protocol: as §2

Staphylococcus aureus = assay: as above; format: cell-based
Protocol: as §2

E. coli = assay: test of corona treated solution against strains of bacteria (Example 3); format: cell-based; settings: after 5 minutes
Protocol: (§3) The corona treated solution was then tested against several strains of bacteria and compared to untreated solutions of 1% hydrogen peroxide.

Lysteria = assay: as above; format: cell-based; settings: after 5 minutes
Protocol: as §3

[4] = tested on: Corynebacterium minitissium; assay: as above; format: cell-based; settings: after 5 minutes
Protocol: as §3

## OO [0.1% H2O2, hydrogen peroxide]
[1]
  ORP of the solution: 355 mV
[2]
  conductivity: 20 μS/cm
[3]
  pH of the solution: approximately 4.9

## OO [0.5% H2O2, hydrogen peroxide]
[1]
  ORP of the solution: 374 mV
[2]
  conductivity: approximately 21 μS/cm
[3]
  pH of the solution: approximately 4.6

## OO [1.6% common hydrogen peroxide solution, hydrogen peroxide]
Salmonella typhimurium
  killed / reduction: 70%
Pseudomonas aeruginosa
  killed: < 100%
Rhodotorula rubra
  killed: < 100%
Escherichia coli
  killed: < 100%
Staphylococcus aureus; after 5 minutes
  reduction: none
Staphylococcus aureus; after 20 minutes
  reduction: 50%

## OO [3% H2O2, hydrogen peroxide]
[1]
  ORP of the solution: 411 mV
[2]
  conductivity: 60 μS/cm
[3]
  pH of the solution: approximately 3.9

## OO [5% H2O2, hydrogen peroxide]
[1]
  ORP of the solution: 428 mV
[2]
  conductivity: 90 μS/cm
[3]
  pH of the solution: approximately 3.7

## OO [10% H2O2, hydrogen peroxide]
[1]
  ORP of the solution: 446 mV
[2]
  conductivity: 110 μS/cm
[3]
  pH of the solution: approximately 3.3

## OO [Example 1 solution before activation, hydrogen peroxide]
[3]
  pH of the solution: 5.8

## OO [Example 3 starting solution, hydrogen peroxide]
[1]
  ORP of the solution: 380 mV
[2]
  conductivity: 17.8 microSiemens/cm
[3]
  pH of the solution: 4.5

## OO [standard 1% hydrogen peroxide, hydrogen peroxide]
[1]; listed as 1% H2O2
  ORP of the solution: 390 mV
[2]; listed as 1% H2O2
  conductivity: 30 μS/cm
[3]; listed as 1% H2O2
  pH of the solution: approximately 4.4
E. coli
  reduced with log: no countable reduction
Lysteria
  reduced with log: no countable reduction
[4]
  reduced with log: no countable reduction
